Key:
Plasmodium falciparum [1] = assay: NOVARTIS: Inhibition of Plasmodium falciparum W2 (drug-resistant) proliferation in erythrocyte-based infection assay; format: functional, organism-based; conditions: Plasmodium falciparum, W2; read-out: EC50
[2] = NOVARTIS: Cytotoxicity against human hepatocellular carcinoma cell line (Huh7); format: toxicity, cell-based, Huh-7; conditions: Huh7 cells (hepatocellular carcinoma cell line)
Plasmodium falciparum [3] = assay: NOVARTIS: Inhibition of Plasmodium falciparum 3D7 (drug-susceptible) proliferation in erythrocyte-based infection assay; format: functional, organism-based; conditions: Plasmodium falciparum, 3D7

SMILES | EC50 (Plasmodium falciparum [1]) | CC50 [2] | EC50 (Plasmodium falciparum [3])
CNC(=O)NNC(=O)c1cccnc1 | > 7470 nM | > 100000 nM | > 12500 nM
Brc1ccc2c(c1)c1ccccc1n2CC1CO1 (configuration not stated) | 2250 nM | 29400 nM | 4730 nM
CCCCc1ccc(C(=O)N(CCC(=O)Nc2nnc(-c3ccc(OC)cc3)s2)CCc2ccc(OC)c(OC)c2)cc1 | > 757 nM | > 10000 nM | 1240 nM
CC(=O)Nc1ccc(Oc2ccc(C(c3ccccc3)(c3ccccc3)c3ccc(Oc4ccc(NC(C)=O)cc4)cc3)cc2)cc1 | 747 nM | > 10000 nM | 360 nM
CC(C)(C)OC(=O)NCC(=O)Oc1cc2oc(=O)cc(-c3ccccc3)c2cc1Cl | > 755 nM | > 10000 nM | > 1250 nM
CCOC(=O)N1CCN(C(=O)C(=O)NNC(=O)COc2ccc(Cl)cc2Br)CC1 | 769 nM | > 10000 nM | > 1250 nM
Cc1ccc(C(C(=O)NCc2ccccc2)N(C(=O)c2snc(C(N)=O)c2N)c2ccccc2)o1 (configuration not stated) | > 755 nM | > 10000 nM | 1230 nM
c1cc2cc3ccc(OCCN4CCCCC4)cc3nc2cc1OCCN1CCCCC1 | 772 nM | > 10000 nM | 348 nM
O=C(CCC1CCCC1)NCCCCNc1ccnc2cc(Cl)ccc12 | 175 nM | 2270 nM | 486 nM
O=C(NCCCCNc1ccnc2cc(Cl)ccc12)c1cc(C(F)(F)F)cc(C(F)(F)F)c1 | 766 nM | > 10000 nM | 642 nM
COc1ccc(OC)c(-c2ccc(O)c(CNCC(C)C)c2)c1 | 773 nM | > 10000 nM | 950 nM
O=C(NC(=S)Nc1ccc([N+](=O)[O-])cc1Cl)c1ccco1 | > 769 nM | > 10000 nM | > 1530 nM
CC1CCCCN1CCCNc1ncc(C(=O)NCc2ccccc2)c(NCC2CCCCC2)n1 (configuration not stated) | > 759 nM | > 10000 nM | 582 nM
N#C/C(=C\c1ccccc1OCc1ccc(Cl)cc1Cl)c1nc2ccccc2[nH]1 | > 772 nM | > 10000 nM | 348 nM
COc1ccc(-c2csc3nc(COc4cccc(C)c4)nn23)c(O)c1 | 7590 nM | > 100000 nM | > 4620 nM
CCOC(=O)N1CCN(C(=O)C(NC(=O)C2CCC(C)CC2)C(C)C)CC1 (configuration not stated) | > 755 nM | > 10000 nM | > 1670 nM
CCCC(=O)O[C@]1(C(=O)CCl)[C@@H](C)C[C@H]2[C@@H]3CCC4=CC(=O)C=C[C@]4(C)[C@@]3(F)C(=O)C[C@@]21C | 6080 nM | 80000 nM | > 12500 nM
CCn1c2ccccc2c2cc(C=NNC(=O)c3nnn(-c4nonc4N)c3-c3ccccc3)ccc21 | > 760 nM | > 10000 nM | > 1250 nM
COc1ccc(OC)c(-c2ccc(O)c(CNCC3(O)CCCCC3)c2)c1 | 762 nM | > 10000 nM | 818 nM
CCc1ccccc1N1C(=O)CN(Cc2ccccc2)C1=S | 6000 nM | 78800 nM | > 12500 nM
CC(C)(C)c1cc(Br)cc(C=NNc2ccc([N+](=O)[O-])cc2)c1O | 761 nM | > 10000 nM | > 1210 nM
Cc1ccc(-n2c(C(C)N(CCc3ccccc3)C(=O)c3cccc(F)c3)nc3ccccc3c2=O)c(C)c1 (configuration not stated) | 764 nM | > 10000 nM | > 1250 nM
CCN1C(=Cc2ccc3c4ccoc4ccc3[n+]2CC)C=Cc2c1ccc1occc21 | 764 nM | > 10000 nM | 534 nM
CCN(CC)c1ccc2cc(C(C)=NNC(N)=S)c(=O)oc2c1 | 7460 nM | > 100000 nM | 4310 nM
CCCCCCN(C(=O)Nc1ccccc1OC)C(C)c1nc2ccccc2c(=O)n1-c1ccccc1OCC (configuration not stated) | 753 nM | > 10000 nM | 852 nM
Cc1ccccc1OCCSc1nc2ccc(NC(=O)c3ccccc3)cc2s1 | > 7470 nM | > 100000 nM | 9760 nM
COc1ccc(OC)c(-c2ccc(O)c(CNCCc3ccc(Cl)cc3)c2)c1 | 749 nM | > 10000 nM | 987 nM

SMILES | EC50 (Plasmodium falciparum [1]) | CC50 [2] | EC50 (Plasmodium falciparum [3])
O=C(CCN1C(=O)C2CCCCC2C1=O)N1CCc2ccccc2C1 (configuration not stated) | 7490 nM | > 100000 nM | > 4850 nM
O=C1NCCN1C(=O)C(c1ccccc1)c1ccccc1 | > 746 nM | > 10000 nM | > 1540 nM
COC(=O)c1c(NC(=O)c2cc3ccccc3oc2=O)sc2c1CCC(C)C2 (configuration not stated) | > 7460 nM | > 100000 nM | > 12500 nM
COc1cc2nc(CN(C)C(C)c3cccs3)nc(N3CCCC3)c2cc1OC (configuration not stated) | 1990 nM | 26400 nM | > 12500 nM
N#Cc1cccc(/C=C/C(=O)O)c1 | 752 nM | > 10000 nM | 1650 nM
COc1cc(NC(C)CCCN(Cc2ccc(Cl)cc2)C(=O)Nc2cccc(C(F)(F)F)c2)c2ncccc2c1 (configuration not stated) | 332 nM | > 4440 nM | 798 nM
Cc1cc(C)nc(SCc2cc(=O)c(OC(=O)c3cccc([N+](=O)[O-])c3C)co2)n1 | > 7470 nM | > 100000 nM | > 12500 nM
CCN(CC)CCCC(C)Nc1ccnc2ccc([N+](=O)[O-])cc12 (configuration not stated) | 747 nM | > 10000 nM | 249 nM
CCCCCCc1ccc(C(=O)N(CC(=O)Nc2cc(C(C)(C)C)nn2-c2ccc(Cl)c(Cl)c2)C(C)C)cc1 | > 752 nM | > 10000 nM | 1390 nM
COc1ccc(C2=C/C(=C/c3cccc(OC)c3OC)C(=O)O2)cc1OC | > 751 nM | > 10000 nM | 1140 nM
COc1ccc(Nc2nc(-c3cc4cc(OC)ccc4oc3=O)cs2)c(OC)c1 | > 7470 nM | > 100000 nM | > 12500 nM
CCOc1ccc(OCc2nnc(S)n2N)cc1 | > 752 nM | > 10000 nM | > 1250 nM
O=C1c2ccccc2-c2nc3c(Cl)cc(C(F)(F)F)cc3nc21 | 747 nM | > 10000 nM | 1040 nM
CCCN(CC(=O)Nc1cc(C(C)(C)C)nn1-c1cccc(C)c1C)C(=O)C(C)(C)C | > 763 nM | > 10000 nM | > 1250 nM
C1CCC(NP2(NC3CCCCC3)=NP(NC3CCCCC3)(NC3CCCCC3)=NP(NC3CCCCC3)(NC3CCCCC3)=N2)CC1 | 3150 nM | 41400 nM | 6610 nM
Nc1ccc(-c2nc(-c3ccc(N)cc3)c3ccccc3n2)cc1 | 759 nM | > 10000 nM | > 1250 nM
CCOc1ccc(NC(=O)C(C)Sc2nc3ccccc3[nH]2)cc1 (configuration not stated) | > 7600 nM | > 100000 nM | > 12500 nM
COc1ccc(CC(=O)NCCCCNc2ccnc3cc(Cl)ccc23)cc1 | 345 nM | 4500 nM | 550 nM
N#Cc1cc2nc3c(nc2cc1C#N)-c1ccccc1C3=O | 2560 nM | 33200 nM | 6970 nM
Cc1cccc(-c2cc3nc(C)c(C)c(O)n3n2)c1 | 7540 nM | > 100000 nM | > 9720 nM
Cc1sc2ncn(CC(=O)N(C)Cc3ccccc3)c(=O)c2c1S(=O)(=O)N1CCOCC1 | > 770 nM | > 10000 nM | > 1250 nM
CCN(CC)c1ccc2c(C)cc(Nc3ccccc3)[o+]c2c1 | 746 nM | > 10000 nM | 239 nM
CCCC(=O)N1CCN(C(=O)c2nc(-c3ccccc3)nc(CCC)c2C(=O)OCC)CC1C (configuration not stated) | 774 nM | > 10000 nM | 1200 nM
Cc1ccc(C(C(=O)NC(C)(C)C)N(C(=O)c2ccc(-c3ccccc3)[nH]2)c2ccc(C3CCCCC3)cc2)o1 (configuration not stated) | 765 nM | > 10000 nM | 337 nM
O=C(NNc1c2ccccc2nc2ccccc12)Nc1ccccc1 | 756 nM | > 10000 nM | 873 nM
Cn1c(COc2ccc(Cl)cc2Cl)[n+](C)c2ccccc21 | 773 nM | > 10000 nM | 261 nM
Cc1ccc(-n2c(C(C)N(Cc3ccco3)C(=O)C3CCC3)nc3cc(Cl)ccc3c2=O)cc1 (configuration not stated) | 208 nM | > 2760 nM | > 1680 nM
